pEC50, pIC50: −log10 of the molar value.
How the values were obtained:
[1] = system: HCV replicon in HUH-7 cells; assay: HCV replicon FRET assay; assay type: cell-based, HCV strain 1b; details: Hepatitis C virus, Huh-7; read-out: EC50 value in the replicon FRET assay
[2] = system: HCV replicon (Renilla luciferase) in HUH-7 cells; assay: HCV replicon luciferase reporter assay; assay type: cell-based, HCV strain 1b
Source text: An HCV replicon whole cell system was established as described by Lohmann V, Korner F, Koch J, Herian U, Theilmann L, Bartenschlager R., Science 285(5424):110-3 (1999). This system enabled us to evaluate the effects of our HCV Protease compounds on HCV RNA replication. Briefly, using the HCV strain 1b sequence described in the Lohmann paper (Assession number:AJ238799), an HCV cDNA was synthesized by Operon Technologies, Inc. (Alameda, Calif.), and the full-length replicon was then assembled in plasmid pGem9zf(+) (Promega, Madison, Wis.) using standard molecular biology techniques. […]
As a secondary assay, EC50 determinations from the replicon FRET assay were confirmed in a replicon luciferase reporter assay. […] Following 4 days in a 37° C./5% CO2 incubator, cells were analyzed for Renilla Luciferase activity using the Promega Dual-Glo Luciferase Assay System. […] Plates were read on a Packard TopCount NXT using a luminescence program. The percentage inhibition was calculated using the formula below: % control=average luciferase signal in experimental wells (+compound) average luciferase signal in DMSO control wells (−compound)
The values were graphed and analyzed using XLfit to obtain the EC50 value.

[3] = molecular target: T1, human neutrophil elastase (HNE) (Homo sapiens, UniProt P08246); assay: Specificity assay, elastase (HNE); assay type: biochemical; details: read-out: HLE activity in the specificity assays
T1 construct: purchased Sigma, EMDbiosciences
T1 sequence (P08246 30-247 limits assumed): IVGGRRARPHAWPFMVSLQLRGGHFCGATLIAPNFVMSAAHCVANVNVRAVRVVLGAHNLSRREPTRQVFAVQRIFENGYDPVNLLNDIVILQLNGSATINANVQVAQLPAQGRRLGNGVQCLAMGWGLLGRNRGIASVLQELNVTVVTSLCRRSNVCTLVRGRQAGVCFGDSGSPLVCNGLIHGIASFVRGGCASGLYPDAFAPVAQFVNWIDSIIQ
Description: (§1) The specificities of compounds of the present disclosure were determined against a variety of serine proteases: human neutrophil elastase (HNE), porcine pancreatic elastase (PPE) and human pancreatic chymotrypsin and one cysteine protease: human liver cathepsin B. In all cases a 96-well plate format protocol using a fluorometric Amino-Methyl-Coumarin (AMC) substrate specific for each enzyme was used as described previously (PCT Patent Application No. WO 00/09543) with some modifications to the serine protease assays. All enzymes were purchased from Sigma, EMDbiosciences while the substrates were from Bachem, Sigma and EMDbiosciences.
(§2) Compound concentrations varied from 100 to 0.4 μM depending on their potency. The enzyme assays were each initiated by addition of substrate to enzyme-inhibitor pre-incubated for 10 min at room temperature and hydrolysis to 15% conversion as measured on cytofluor.
(§3) 50 mM Tris-HCl, pH 8.0, 50 mM NaCl, 0.1 mM EDTA, 3% DMSO, 0.02% Tween-20, 5 μM succ-AAPV-AMC and 20 nM HNE or 8 nM PPE;
(§4) The percentage of inhibition was calculated using the formula: [1−((UVinh−UVblank)/(UVctl−UVblank))]×100
(§5) A non-linear curve fit was applied to the inhibition-concentration data, and the 50% effective concentration (IC50) was calculated by the use of Excel XLfit software.

[4] = molecular target: T2, porcine pancreatic elastase (PPE) (Sus scrofa, UniProt P00772); assay: Specificity assay, PPE; assay type: biochemical; details: read-out: PPE activity in the specificity assays
T2 construct: purchased Sigma, EMDbiosciences
T2 sequence (P00772 27-266): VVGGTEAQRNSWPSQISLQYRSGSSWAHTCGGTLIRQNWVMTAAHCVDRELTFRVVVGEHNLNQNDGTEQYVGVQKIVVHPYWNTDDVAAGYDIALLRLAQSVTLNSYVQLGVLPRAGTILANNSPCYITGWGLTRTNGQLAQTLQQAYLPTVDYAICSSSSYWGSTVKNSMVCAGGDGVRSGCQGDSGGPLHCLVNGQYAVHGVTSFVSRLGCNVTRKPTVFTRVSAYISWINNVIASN
Description: as §1, §2, §3, §4, §5

[5] = system: human pancreatic chymotrypsin; assay: Specificity assay, chymotrypsin; assay type: biochemical; details: read-out: Chymotrypsin activity in the specificity assays
Description: as §1, §2
50 mM Tris(hydroxymethyl)aminomethane hydrochloride (Tris-HCl) pH 8, 0.5 M Sodium Sulfate (Na2SO4), 50 mM NaCl, 0.1 mM EDTA, 3% DMSO, 0.01% Tween-20 with 5 μM LLVY-AMC and 1 nM Chymotrypsin.
as §4, §5

Work on `C=C[C@@H]1C[C@]1(NC(=O)[C@@H]1C[C@@H](Oc2ncc(OC)c3ccc(Cl)cc23)CN1C(=O)[C@@H](Nc1nc(-c2cccc(OC(F)(F)F)c2)cs1)C(C)(C)C)C(=O)NS(=O)(=O)C1CC1` [Example 68] yielded a pEC50 [1] of 8.24, a pEC50 [2] of 8.70 and a pIC50 [3] of less than 4.30. For the same molecule, the pIC50 [4] was less than 4.30 and the pIC50 [5] was 5.52.

From patent US8163921B2, “Hepatitis C virus inhibitors” (Bristol-Myers Squibb Company, priority 2008, dated 2012)
